These results are taken from US20220125754A1, “TREATING THE CAUSATIVE AGENT IN ADHESIOGENESIS” (Helmholtz Zentrum München - Deutsches Forschungszentrum Für …, priority 2019, published 2022).

Assay [1] has as its system heliocytes (stressed Met-5A mesothelial cells). In words: Protrusion development in desiccation-stressed Met-5A cells expressing membranous GFP (epi-fluorescence). Format: cell-based, human. To be noted: 10 μM, 24 hours, desiccation stress (FIG. 6B). How it is done:
(§1) FIG. 6: Single-cell transcriptomics of heliocytes. A) Overview of the Dropseq workflow. B) Epi-fluorescent representative images of Met-5A cells stably expressing membranous GFP, stressed with desiccation and treated with small-molecule compounds for 24 hours (10 μM). Scale bar, 10 μm. C) Desiccation shock induces small-molecule sensitive carrier-carrier aggregation as assessed with a high-throughput nanoluciferase assay. ID) Adhesion propagation assay (see methods) with nanoluciferase expressing Met-5A cells after treatment with small molecule inhibitors for 24 hours (10 μM). E) Cre-exchange transmission assay (see methods) with Cre-recombinase and Cre-dependent nanoluciferase expressing Met-5A cells after treatment with small molecule inhibitors for 24 hours (10 μM).
Met-5A cells were seeded on gelatin (Sigma Aldrich, #G1393) coated dishes. Once a confluent monolayer was established, stressed cell-covered beads were seeded onto the monolayer. For the inhibitory experiments, if not indicated otherwise, monolayer cells were pretreated with the indicated compound for 30 minutes in culture medium. Afterwards the adhesion assay was performed as described above.
Mesothelial protrusion analysis was performed using the Advanced weka segmentation Fiji plugin^37. It utilizes a collection of machine learning algorithms for segmentation. Specifically, pixel-based segmentation is based on image features annotated to different classes. Pixel samples were free drawn and assigned to respective classes, e.g. ‘filopodia’, ‘cell body’, or ‘background’. Subsequent rounds of training were performed to allot respective pixels and structures to its corresponding classes for improved segmentation. Training features, such as ‘Gaussian blur’, ‘Sobel filter’, ‘Hessian’, ‘Difference of Gaussians’ and ‘Membrane projections’ were applied along with default classifier ‘Fast Random Forest’. Other settings were kept as default (membrane thickness 1, membrane patch size 19, minimum sigma 1.0, and maximum sigma 16.0). The trained classifier and data were saved for analysis of other ‘stressed’ and ‘unstressed’ mesothelial datasets. A macro was written to automate the above steps for other datasets with pause for 5 seconds (wait(5000) function) after each step for smooth processing. Images from the segmented classes were extracted and subjected to post processing.
In order to identify underlying mechanisms of heliocyte transformation, differential gene expression analysis was performed using a likelihood-ratio test for single cell gene expression data^21. This identified 1644 genes that were regulated in stressed cells at one or more time points (FDR<10%). […]

In assay [2] the test system is Met-5A cells on microcarrier beads. Nature of the assay: High-throughput carrier-carrier adhesion assay (nanoluciferase). It is filed as cell-based, human. To be noted: desiccation shock, high-throughput nanoluciferase assay (FIG. 6C). How it is done: as §1
Cells were incubated with ice cold luciferase lysis buffer (25 mM Tris-HCL pH 7.8, 1% Triton X-100, 15 mM MgSO4, 4 mM EGTA, 1 mM DTT) for 20 minutes. Both assays were performed in a 96-wells plate format. Luciferase firefly substrate was dissolved in PBS, and consisted of 20 mM Tricine, 2.67 mM MgSO4, 0.1 mM EDTA, 33.3 mM DTT, 0.52 mM ATP, 0.27 mM Acetyl-CoA, 5 mM NaOH, […], and 0.47 mM D-Luciferin (Carl Roth, #CN24.3). For nanoluciferase, the substrate solution included 47.2 μM Coelenterazine (Carl Roth, #4094.4). Luminescence was detected after 5 minutes of substrate and lysate co-incubation using the TriStar^2 LB 942 Modular Multimode microplate reader (Berthold Technologies).
Met-5A cells were seeded together with Cytodex® 3 microcarrier beads (Sigma Aldrich, #03275) in a ratio of 500:1, and allowed to adhere and grow for 5 days. Cell-covered beads were then eluted from the culture dish using a 25 mL stripette. The resulting solution was strained through a 100 μm cell strainer (Corning, #352360). […] was induced by placing the bead-containing cell strainer under a running cell culture flow hood for 15 minutes. Afterwards, beads were eluted with assay medium and placed in a cultivation dish coated with HEMA silicate solution (Sigma Aldrich, #P3932), to prevent cell attachment. After indicated time points, carrier complexes were collected by filtering them through a 200 μm cell strainer, which allows individual carriers to pass, while trapping carrier complexes. Adhesions were measured in a high throughput manner through the use of Met-5A cells stably expressing luciferase (AF23) or nanoluciferase (AF1) using Integra Viaflo pipettes.

In another assay the test system is Met-5A cells. In words: Adhesion propagation assay (nanoluciferase expressing Met-5A cells). It is filed as cell-based, human. To be noted: for transmissibility: 10 μM, 24 hours, adhesion propagation assay (FIG. 6D) and Cre-exchange transmission assay (FIG. 6E). The protocol: […] After 24 hours, unbound carriers were washed away and nanoluciferase luminescence was measured. This represents the initial stress-dependent transmitted adhesion.
[…] Carriers were then separated from the monolayer and placed on an unstressed Met-5A wild-type monolayer. After 24 hours, unbound beads were washed away and nanoluciferase luminescence was measured. This represents the first stress-independent transmitted adhesion.
Carriers were then separated from the monolayer and placed on unstressed cell-covered beads stably expressing nanoluciferase (AF1) for 3 hours. Carriers were then isolated once more and placed on an unstressed Met-5A monolayer stably expressing the dTomato-P2A-NanoLuciferase reporter construct (AF34). Unbound beads were then washed away and nanoluciferase luminescence was measured after 24 hours. This represents the second stress-independent transmitted adhesion.
This procedure was continued similarly for the consecutive third and fourth transmissions.
First, repeated consecutive mixing experiments were performed with nanoluciferase-expressing Met-5A cells to study the extent of adhesion propagation. When unstressed cells were exposed to heliocytes, and then separated, they were fully able to generate adhesions even though they had not themselves experienced stress (FIG. 3F). Pharmacological inhibition of HIF-1α signaling has been one of the few proposed intervention routes to reduce adhesion burden^16, thus it was tested to see whether the HIF-1α inhibitor echinomycin could inhibit transmissibility. […] Transmission occurred rapidly, as unstressed cells only had to be exposed to heliocytes for a total of 90 min for successful transmission to occur and allow them to form adhesions themselves (FIG. 3H). Second, two additional cell lines were generated, one expressing Cre recombinase and one expressing a stop codon flanked by two LoxP sites followed by a dTomato-P2A-Nanoluciferase. In this transmission assay, Cre recombinase only drives dTomato-P2A-Nanoluc expression if extensive cytoplasmic mixing occurs that allows Cre recombinase protein to be transferred and shuttled into the nucleus of the dTomato-P2A-Nanoluc cells. Indeed, extensive dTomato fluorescence was observed 3 hours after unstressed carriers were seeded onto a stressed monolayer (FIG. 3I). Under consecutive mixing conditions, like the propagation set-up, naive cells receiving cellular contents from heliocytes could in turn transmit to other cells independently from HIF-1α signaling, for a total of three rounds after the original stress stimulus (FIGS. 3J and K). Because cytoskeletal networks and membrane shuffling are extremely sensitive to shifts in available calcium^17, it was asked whether calcium signaling underlies heliocyte formation and filipodial extensions, using two independent approaches.

Assay [3] has as its system stressed mesothelial cells (heliocytes). In words: Apoptosis assay: fragmented DNA (Cell Death Detection ELISA) in in vitro bead assay. It is filed as cell-based, human. To be noted: 10 μM, stressed mesothelial cells (FIG. 11). How it is done: FIG. 11: Apoptosis Assay. Measurement of fragmented DNA as indicator for apoptosis after 5 days having applied CK666, Golgicide A, Rhosin, Bepridil, Heat shock protein inhibitor 1 (HIS-1) using the in vitro bead assay. Stautosporin serves as a positive control.
Met-5A cells were seeded on gelatin (Sigma Aldrich, #G1393) coated dishes. Once a confluent monolayer was established, stressed cell-covered beads were seeded onto the monolayer. For the inhibitory experiments, if not indicated otherwise, monolayer cells were pretreated with 10 μM of indicated compounds for 30 minutes in culture medium. After 24 h fragmented DNA was determined via Cell Death Detection […] (Sigma Aldrich, #11774425001).
(§2) In order to test listed inhibitor treatments for potential unwanted side effects, in vitro as well as in vivo apoptosis readouts were performed. […] Next, fragmented DNA amounts in the in vitro adhesions were determined, staurosporine representing as the positive control. […] Apoptosis signaling cascades dependent on caspase3 protease activity. To screen caspase3 activity in a high throughput manner, a new functional screening assay was developed. The assay is based on a nanoluciferase fused to a degradation signaling peptide interlinked with caspase3 cleavage sites. Once activated, caspase3 cleaves protein linker, removes the degradation signal and prevents proteasomal digestion of the nanoluciferase.
For orientation: ELISA stands for enzyme-linked immunosorbent assay.

The test system of assay [4] is caspase3 activity in heliocytes. Nature of the assay: Caspase3 activity reporter assay (nanoluciferase-caspase3 cleavage site-degradation peptide). Format: cell-based, human. To be noted: stressed mesothelial cells (heliocytes), compared to control (FIG. 12). The protocol: Then, determination of caspase3 activity in heliocytes was performed. Cells stably expressing a nanoluciferase-caspase3-cleaving-site-degredation-peptide (FIG. 12) were grown on beads seeded onto a Met-5A monolayer. After 24 h nanoluciferase activity was determined. The degradation peptide leads to constitutive degradation of nanoluciferase, active caspase3 cleaves the protein linker, thus removing the degradation signal, leading to increased nanoluciferase amount.
as §2
(In general: In a reporter assay the amount or activity of a reporter protein is the signal.)

For another assay, the system named is adhesion formation. In words: Murine adhesion model (total adhesion score). Format: in vivo, mice. To be noted: for adhesion formation (adhesion score): daily intraperitoneal injection, day 5 after injury (FIG. 9).

Description for adhesion formation: Small molecule inhibitors were solubilized in sterile 2% hydroxyethyl-cellulose (Sigma Aldrich, #09368). Compounds were being added immediately prior to surgery, and were derived from a 100-150 mM stock solution to minimize the final DMSO content. The final solution (200 μL per 30 g body weight) was sandwiched between the visceral and parietal layer of the injured cecum and peritoneum respectively.
Mice were anesthetized by an intraperitoneal injection of a Medetomidin (500 μg/kg), Midazolam (5 mg/kg) and Fentanyl (50 μg/kg) cocktail, hereafter referred to as MMF. Monitoring anesthetic depth was assessed by toe reflex. Eyes were covered with Bepanthen to avoid dehydration, and the abdomen was shaved and disinfected with betadine and sterile phosphate buffered saline (PBS). Animals were kept on their backs on a heating plate at 37° C. A midline laparotomy (1-1.5 cm) was performed through the skin and peritoneum. Four hooks, positioned around the incision and fixed to a retractor and magnetic base plate, allowed for clear access to the abdominal cavity. A small surgical brush was used to gently abrade the peritoneal surface and apposing cecal surface. Two surgical knots using 4-0 silk sutures (Ethicon) were then placed through the serosal surface of the peritoneum. A cotton swab was used to gently apply a dab of talc powder (Sigma Aldrich, #243604) onto the injured surfaces. Before closure of the incision, buprenorphine (0.1 mg/kg) was pipetted in the abdomen to allow for initial post-surgical analgesia. For long-term analgesia, metamizol (Novalgin, 200 mg/kg) was provided through daily injection. The peritoneum and skin were closed with two separate 4-0 silk sutures (Ethicon). Upon closure of the incision, mice were woken up by antagonizing the MMF solution through a subcutaneous cocktail injection of Atipamezol (1 mg/kg) and Flumazenil (0.25 mg/kg). Mice were allowed to recover on a heating pad, after which they were housed together (females) or individually (males), and followed for 1-5 days. Adhesions were scored using gross morphological features that indicated adhesion development. Five individual adhesion features were scored (see table below) that together provided a cumulative value that determined the total adhesion score. With this system, complete absence of adhesions were scored as 0, whereas the maximum adhesion score was 15.
Mice were anesthetized by an intraperitoneal injection of a Medetomidin (500 μg/kg), Midazolam (5 mg/kg) and Fentanyl (50 μg/kg) cocktail, hereafter referred to as MMF. Monitoring anesthetic depth was assessed by toe reflex. Eyes were covered with Bepanthen to avoid dehydration, and the abdomen was shaved and disinfected with betadine and sterile phosphate buffered saline (PBS). Animals were kept on their backs on a heating plate at 37° C. A midline laparotomy (1-1.5 cm) was performed through the skin and peritoneum. Four hooks, positioned around the incision and fixed to a retractor and magnetic base plate, allowed for clear access to the abdominal cavity. A small surgical brush was used to gently abrade the peritoneal surface and apposing cecal surface. Two surgical knots using 4-0 silk sutures (Ethicon) were then placed through the serosal surface of the peritoneum. A cotton swab was used to gently apply a dab of talc powder (Sigma Aldrich, #243604) onto the injured surfaces. Before closure of the incision, buprenorphine (0.1 mg/kg) was pipetted in the abdomen to allow for initial post-surgical analgesia. […]

Consider Rhosin, for which, in assay [1], the “protrusion development in heliocytes” value is “completely blocked”. Moreover, the “adhesion formation (carrier-carrier aggregation)” value in assay [2] is recorded as “completely blocked”. Also, in the assay on Met-5A cells, the transmissibility result is recorded as “completely blocked”. The “fragmented DNA (indicator for apoptosis)” value in assay [3] was “significantly more fragmented DNA”. In assay [4], the “caspase3 activity (nanoluciferase activity of reporter)” value is reported as “higher caspase3 activity”. Besides, in the assay on adhesion formation, the “adhesion formation (adhesion score)” value is on record as “robustly inhibited adhesion formation”.

On to `Fc1cc(F)c2c(c1)C1C=CCC1C(c1cccnc1)N2` (stereo not drawn) [Golgicide A], for which the “protrusion development in heliocytes” value in assay [1] is “completely blocked”. Also, the “adhesion formation (carrier-carrier aggregation)” value in assay [2] is recorded as “completely blocked”. Besides, the transmissibility entry in the assay with Met-5A cells is given as “completely blocked”. In addition, the “adhesion formation (adhesion score)” value with adhesion formation was “robustly inhibited adhesion formation”.

Turning to `CN[C@@H]1C[C@H]2O[C@@](C)([C@@H]1OC)n1c3ccccc3c3c4c(c5c6ccccc6n2c5c31)C(=O)NC4` [Staurosporine], the “caspase3 activity (nanoluciferase activity of reporter)” value in assay [4] is “enhanced nanoluciferase activity”.

Consider `CC(C)COCC(CN(Cc1ccccc1)c1ccccc1)N1CCCC1` (stereo not drawn) [Bepridil], for which, in assay [1], the “protrusion development in heliocytes” value is reported as “completely blocked”. Moreover, in assay [2], the “adhesion formation (carrier-carrier aggregation)” value is listed as “completely blocked”. Further, in the assay on Met-5A cells, the transmissibility entry was “completely blocked”. In addition, in the assay with adhesion formation, the “adhesion formation (adhesion score)” value is “robustly inhibited adhesion formation”.

As for `CS[C@H]1SC[C@H]2C(=O)N(C)[C@@H](C(C)C)C(=O)OC[C@@H](NC(=O)c3cnc4ccccc4n3)C(=O)N[C@@H](C)C(=O)N(C)[C@@H]1C(=O)N(C)[C@@H](C(C)C)C(=O)OC[C@@H](NC(=O)c1cnc3ccccc3n1)C(=O)N[C@@H](C)C(=O)N2C` [echinomycin], the initial desiccation-induced transmission entry in the assay on Met-5A cells (HIF-1α inhibition (FIG. 3G)) was “could be prevented”.

For `Cc1[nH]c2ccccc2c1CCNC(=O)c1ccccc1F` [CK-666], the “protrusion development in heliocytes” value in assay [1] is “completely blocked”. Also, in assay [2], the “adhesion formation (carrier-carrier aggregation)” value was “completely blocked”. In addition, the transmissibility result with Met-5A cells was “completely blocked”. In the assay on adhesion formation, the “adhesion formation (adhesion score)” value was “robustly inhibited adhesion formation”.

For the compound `CNc1ccc([N+](=O)[O-])c(Nc2ccc3[nH]ncc3c2)n1` [KRIBB11], the adhesion score entry in the assay with adhesion formation (single application of 10 nM in 2% cellulose, topical, 5 days after injury (FIG. 16)) is “shows no effect”.
